{"source": "patent US9550747B2", "about": "“Dapagliflozin crystalline form and preparation method thereof” (Jiangsu Hansoh Pharmaceutical Group Co., Ltd., priority 2014, dated 2017)", "key": {"[1]": {"conditions": "30° C.±2° C./RH 65%±5%", "experimental": "(§1) The crystal resulting from Example 1 was placed under acceleration conditions for 6 months.\nConditions: 30° C.±2° C./RH 65%±5%\n(§2) Package: Two layers of low density polyethylene bag for medicinal use were sealed by hot-melt respectively, and desiccant was added. The bag was sealed and packaged with a pharmaceutical composite film bag of polyester/aluminum/polyamide/cast polypropylene."}, "[2]": {"conditions": "21° C.±2° C./RH 45%±5%", "experimental": "as §1\nConditions: 21° C.±2° C./RH 45%±5%\nas §2"}, "[3]": {"experiment": "not given", "remark": "listed apart in the source"}}, "note": "Like-named read-outs stand apart in the source and are kept apart here."}
{"smiles": "CCOc1ccc(Cc2cc([C@@H]3O[C@H](CO)[C@@H](O)[C@H](O)[C@H]3O)ccc2Cl)cc1", "note": "[Example 1, 2-chloro-5-(β-D-glucopyranosyl-1-yl)-4′-ethoxy-diphenylmethane]", "values": [{"measurement": "HPLC Identification", "setting": "[1]; 1 Month", "value": "accordance"}, {"measurement": "Moisture Content (%)", "setting": "[1]; 1 Month", "value": 0.82, "unit": "%"}, {"measurement": "Related Substances Maximum Single Impurity (%)", "setting": "[1]; 1 Month", "value": 0.03, "unit": "%"}, {"measurement": "Related Substances Total Impurity (%)", "setting": "[1]; 1 Month", "value": 0.10, "unit": "%"}, {"measurement": "Specific Rotation", "setting": "[1]; 1 Month", "value": "+13.2°"}, {"measurement": "Total Content (%)", "setting": "[1]; 1 Month", "value": 99.6, "unit": "%"}, {"measurement": "XRPD", "setting": "[1]; 1 Month", "value": "accordance"}, {"measurement": "HPLC Identification", "setting": "[1]; 2 Months", "value": "accordance"}, {"measurement": "Moisture Content (%)", "setting": "[1]; 2 Months", "value": 0.81, "unit": "%"}, {"measurement": "Related Substances Maximum Single Impurity (%)", "setting": "[1]; 2 Months", "value": 0.03, "unit": "%"}, {"measurement": "Related Substances Total Impurity (%)", "setting": "[1]; 2 Months", "value": 0.11, "unit": "%"}, {"measurement": "Specific Rotation", "setting": "[1]; 2 Months", "value": "+13.0°"}, {"measurement": "Total Content (%)", "setting": "[1]; 2 Months", "value": 99.7, "unit": "%"}, {"measurement": "XRPD", "setting": "[1]; 2 Months", "value": "accordance"}, {"measurement": "HPLC Identification", "setting": "[1]; 3 Months", "value": "accordance"}, {"measurement": "Moisture Content (%)", "setting": "[1]; 3 Months", "value": 0.77, "unit": "%"}, {"measurement": "Related Substances Maximum Single Impurity (%)", "setting": "[1]; 3 Months", "value": 0.03, "unit": "%"}, {"measurement": "Related Substances Total Impurity (%)", "setting": "[1]; 3 Months", "value": 0.10, "unit": "%"}, {"measurement": "Specific Rotation", "setting": "[1]; 3 Months", "value": "+13.4°"}, {"measurement": "Total Content (%)", "setting": "[1]; 3 Months", "value": 99.3, "unit": "%"}, {"measurement": "XRPD", "setting": "[1]; 3 Months", "value": "accordance"}, {"measurement": "HPLC Identification", "setting": "[1]; 6 Months", "value": "accordance"}, {"measurement": "Moisture Content (%)", "setting": "[1]; 6 Months", "value": 0.81, "unit": "%"}, {"measurement": "Related Substances Maximum Single Impurity (%)", "setting": "[1]; 6 Months", "value": 0.03, "unit": "%"}, {"measurement": "Related Substances Total Impurity (%)", "setting": "[1]; 6 Months", "value": 0.13, "unit": "%"}, {"measurement": "Specific Rotation", "setting": "[1]; 6 Months", "value": "+13.3°"}, {"measurement": "Total Content (%)", "setting": "[1]; 6 Months", "value": 99.5, "unit": "%"}, {"measurement": "XRPD", "setting": "[1]; 6 Months", "value": "accordance"}, {"measurement": "quality indicators of the sample", "setting": "[1]; 6 Months", "value": "did not change significantly"}, {"measurement": "HPLC Identification", "setting": "[1]; time 0", "value": "accordance"}, {"measurement": "Moisture Content (%)", "setting": "[1]; time 0", "value": 0.76, "unit": "%"}, {"measurement": "Related Substances Maximum Single Impurity (%)", "setting": "[1]; time 0", "value": 0.04, "unit": "%"}, {"measurement": "Related Substances Total Impurity (%)", "setting": "[1]; time 0", "value": 0.11, "unit": "%"}, {"measurement": "Specific Rotation", "setting": "[1]; time 0", "value": "+13.3°"}, {"measurement": "Total Content (%)", "setting": "[1]; time 0", "value": 99.4, "unit": "%"}, {"measurement": "XRPD", "setting": "[1]; time 0", "value": "accordance"}, {"measurement": "HPLC Identification", "setting": "[2]; 3 Months", "value": "accordance"}, {"measurement": "Moisture Content (%)", "setting": "[2]; 3 Months", "value": 0.77, "unit": "%"}, {"measurement": "Related Substances Maximum Single Impurity (%)", "setting": "[2]; 3 Months", "value": 0.03, "unit": "%"}, {"measurement": "Related Substances Total Impurity (%)", "setting": "[2]; 3 Months", "value": 0.11, "unit": "%"}, {"measurement": "Specific Rotation", "setting": "[2]; 3 Months", "value": "+13.1°"}, {"measurement": "Total Content (%)", "setting": "[2]; 3 Months", "value": 99.8, "unit": "%"}, {"measurement": "XRPD", "setting": "[2]; 3 Months", "value": "accordance"}, {"measurement": "HPLC Identification", "setting": "[2]; 6 Months", "value": "accordance"}, {"measurement": "Moisture Content (%)", "setting": "[2]; 6 Months", "value": 0.80, "unit": "%"}, {"measurement": "Related Substances Maximum Single Impurity (%)", "setting": "[2]; 6 Months", "value": 0.03, "unit": "%"}, {"measurement": "Related Substances Total Impurity (%)", "setting": "[2]; 6 Months", "value": 0.13, "unit": "%"}, {"measurement": "Specific Rotation", "setting": "[2]; 6 Months", "value": "+12.9°"}, {"measurement": "Total Content (%)", "setting": "[2]; 6 Months", "value": 99.5, "unit": "%"}, {"measurement": "XRPD", "setting": "[2]; 6 Months", "value": "accordance"}, {"measurement": "quality indicators of the sample", "setting": "[2]; 6 Months", "value": "did not change significantly"}, {"measurement": "HPLC Identification", "setting": "[2]; time 0", "value": "accordance"}, {"measurement": "Moisture Content (%)", "setting": "[2]; time 0", "value": 0.76, "unit": "%"}, {"measurement": "Related Substances Maximum Single Impurity (%)", "setting": "[2]; time 0", "value": 0.04, "unit": "%"}, {"measurement": "Related Substances Total Impurity (%)", "setting": "[2]; time 0", "value": 0.11, "unit": "%"}, {"measurement": "Specific Rotation", "setting": "[2]; time 0", "value": "+13.3°"}, {"measurement": "Total Content (%)", "setting": "[2]; time 0", "value": 99.4, "unit": "%"}, {"measurement": "XRPD", "setting": "[2]; time 0", "value": "accordance"}, {"measurement": "hygroscope", "setting": "High humidity test 25° C./RH 75%, day 5", "value": 4.83, "unit": "%"}, {"measurement": "hygroscope", "setting": "High humidity test 25° C./RH 75%, day 10", "value": 4.84, "unit": "%"}, {"measurement": "hygroscope", "setting": "High humidity test 25° C./RH 95%, day 5", "value": 6.09, "unit": "%"}, {"measurement": "hygroscope", "setting": "High humidity test 25° C./RH 95%, day 10", "value": 6.71, "unit": "%"}]}
{"smiles": "CCOc1ccc(Cc2cc([C@@H]3O[C@H](CO)[C@@H](O)[C@H](O)[C@H]3O)ccc2Cl)cc1", "note": "[crystal of the present invention, 2-chloro-5-(β-D-glucopyranosyl-1-yl)-4′-ethoxy-diphenylmethane]", "values": [{"measurement": "transformation of the crystal (XRPD)", "setting": "[3]; after grinding", "value": "does not result in transformation"}, {"measurement": "transformation of the crystal (XRPD)", "setting": "[3]; after pressing into a tablet, FIG. 2", "value": "no transformation"}]}
